In one series the test system is unmodified GL26 cells. Nature of the series: GL26 drug cytotoxicity screens. The format is cell-based, murine. The note with it: drug 125-1000 μM, read-out: EC50 (concentrations giving 50% killing). The method, then: GL26 drug cytotoxicity (EC50, concentrations giving 50% killing) screens were performed with the results depicted in Table 2.
The test system of a further series is RG2 Glioma. Nature of the series: WST-1 cytotoxic screening, RG2 Glioma. The note with it: for EC50: read-out: Effective concentration for 50% cell death (EC50). As to the method:
(§1) Thus, the inventors examined the in vitro effect of several ATP-dependent potassium channel agonists on cell viability in a wide range of tumor and normal cells.
(§2) Table 1 depicts the in vitro effect of KATP channel agonists on cell viability in a range of tumor and normal cells. The cytotoxic screening assay (WST-1 assay; Roche Diagnostics) results shown are the effective KATP channel agonist concentration (μM) required for 50% cell death (EC50) after exposure to the same for 24 hours. Indicated percentages are the percent viable cells remaining after treatment with 1000 μM of KATP channel agonists.
(Tetrazolium dyes change colour on reduction, which living cells bring about.)

The subject of another series is GL-26 Glioma. Nature of the series: cells. The note with it: read-out: Effective concentration for 50% cell death (EC50). The method, then:
as §1, §2

The subject of the next series is U87 human glioma. Nature of the series: WST-1 cytotoxic screening, U87 Glioma. The note with it: for EC50: read-out: Effective concentration for 50% cell death (EC50). The method, then:
as §1, §2

For a further series, the system named is MDA-231 Breast Cancer. Nature of the series: WST-1 cytotoxic screening, MDA-231 Breast Cancer. Type of series: cell-based. The note with it: read-out: Effective concentration for 50% cell death (EC50). The method, then:
as §1, §2

In another series the test system is CRL5904 NSC Lung Cancer. Nature of the series: WST-1 cytotoxic screening, CRL5904 NSC Lung Cancer. The note with it: for EC50: read-out: Effective concentration for 50% cell death (EC50); for viability at 1000 µM: read-out: percentage of viable cells remaining. The method, then:
as §1, §2

The next series deals with HT-29 human colon cancer. Nature of the series: WST-1 cytotoxic screening, HT-29 Colon Cancer. The note with it: for EC50: read-out: Effective concentration for 50% cell death (EC50). As to the method:
as §1, §2

For the next series, the system named is HBMVEC Endothelial. Nature of the series: WST-1 cytotoxic screening, HBMVEC Endothelial. The note with it: read-out: Effective concentration for 50% cell death (EC50). The method, then:
as §1, §2

The subject of a further series is 9L Glioma. Nature of the series: WST-1 cytotoxic screening, 9L Glioma. Type of series: cell-based. The note with it: for EC50: treatment for 24 hours, read-out: Effective concentration for 50% cell death (EC50). As to the method: as §1, §2
Another series relates to C6 rat glioma. Nature of the series: WST-1 cytotoxic screening, C6 Glioma. The note with it: for EC50: 24 h, read-out: Effective concentration for 50% cell death (EC50). As to the method:
as §1, §2

The subject of another series is DNTC-1 Astrocytes. Nature of the series: WST-1 cytotoxic screening, DNTC-1 Astrocytes. Type of series: cell-based. The note with it: Astrocyte, treatment for 24 hours, read-out: Effective concentration for 50% cell death (EC50). The method, then: as §1, §2
Series [1] can be described thus: WST-1 cytotoxic screening, HBMVEC Endothelial. The note with it: human, HBMVEC endothelial cells (non-cancer). The method, then:
as §1, §2

In another series the test system is GL26 glioma. Nature of the series: Survival of mice with intracranial GL26 glioma. The format is in vivo. The note with it: for survival, C57BL/6 (WT) relative to nu/nu mice: 2.7 mg/kg days 7-9 after GL26 implantation, log-rank; for survival: 2.7 mg/kg i.v. days 7-9 after intracranial GL26 implantation, 2.7 mg/kg. As to the method:
FIG. 1 depicts T cell-induced chemosensitization of murine glioma in accordance with an embodiment of the present invention. Fifty thousand (50,000) GL26 tumor cells in […] 1% methylcellulose were implanted i.c. into anesthetized female C57BL/6J (black lines) or nu/nu (gray lines) mice aged 6-8 weeks using a stereotactic rodent frame. Injection was 1 mm posterior and 2.5 mm lateral to the junction of the coronal and saggital sutures (bregma), at a depth of 2 mm. Vaccinated mice received 2, subcutaneous injections of 2×106 tumor lysate-pulsed, irradiated cultured DC2.4 dendritic cells in […] sterile PBS as vaccine on day 3 and 7 post tumor implantation, and a chemotherapeutic drug (dosage: 2.7 mg/kg minoxidil sulfate) was administered on days 7, 8, and 9 post tumor implantation. […] Survival differences were assessed by log-rank statistics.
FIGS. 2a and 2b depicts survival rates of mice treated with minxodil sulfate in accordance with an embodiment of the present invention. Survival of Nude (nu; gray) and C57BL/6 (WT) mice with (solid black) or without (dotted black) vaccination, treated 7-9 days after intracranial GL26 glioma implantation with vehicle (DMSO) or minoxidil sulfate (MS, 2.7 mg/kg in 50 μl, i.v.). Vaccinated mice were injected subcutaneously with […] tumor lysate-pulsed syngeneic DC2.4 dendritic cells 3 and 7 days after GL26 implantation.
GL26 glioma cells were implanted intracranially into T cell-deficient (nude) or syngeneic wild-type (C57BI/6) mice, which were treated with a chemotherapeutic drug alone or with vaccination using GL26 lysate-pulsed DC2.4 dendritic cells. […] (FIG. 1).
Chemosensitivity was modeled by growth of the GL26 glioma in syngeneic C57BL/6 (B6), vaccinated B6, and T cell-deficient nude mice. Tumor implantation was followed by chemotherapeutic drug treatment and/or DC vaccination.

Setting [2] is: Homo sapiens, MDA-MB-231, treatment for 24 hours.

Counter-ions that a name gives are not always drawn. Like-named read-outs stand apart in the source and are kept apart here.

Regarding `COc1cccc2c1C(=O)c1c(O)c3c(c(O)c1C2=O)C[C@@](O)(C(=O)CO)C[C@@H]3O[C@H]1C[C@H](N)[C@H](O)[C@H](C)O1` [Adriamycin], in the series with unmodified GL26 cells (Mus musculus), the EC50 is below 125 µM.

Turning to `N.N.O=C([O-])C1(C(=O)[O-])CCC1.[Pt+2]` [Carboplatin], the EC50 in the series with unmodified GL26 cells was determined as 310 µM.

With `CC1(C)Oc2ccc(S(=O)(=O)Nc3ccccc3)cc2[C@@H](N2CCCCC2=O)[C@@H]1O` [KCO912], the EC50 is above 1000 µM in the series on RG2 Glioma (RG2 Glioma, treatment for 24 hours); above 1000 µM in the series with GL-26 Glioma (GL-26 Glioma, treatment for 24 hours); above 1000 µM in the series on U87 human glioma (U87 Glioma, treatment for 24 hours); 126 µM in the series on MDA-231 Breast Cancer (treatment for 24 hours); above 1000 µM in the series on CRL5904 NSC Lung Cancer (CRL5904 NSC Lung Cancer, treatment for 24 hours); above 1000 µM in the series on HT-29 human colon cancer (HT-29 Colon Cancer, treatment for 24 hours). Also, the EC50 in the series on HBMVEC Endothelial (HBMVEC Endothelial, treatment for 24 hours) is above 1000 µM.

As to `CN(Cc1cnc2nc(N)nc(N)c2n1)c1ccc(C(=O)N[C@@H](CCC(=O)O)C(=O)O)cc1` [Methotrexate], the EC50 in the series on unmodified GL26 cells (Mus musculus) was above 1000 µM.

Consider `Nc1cc(N2CCCCC2)nc(N)[n+]1OS(=O)(=O)[O-]` [Minoxidil Sulfate, minoxidil sulfate], for which the EC50 is 810 µM with RG2 Glioma (Rattus norvegicus, RG2, 24 h); above 1000 µM in the series with 9L Glioma; 130 µM with C6 rat glioma (Rattus norvegicus, C6 glioma); 595 µM in the series on GL-26 Glioma (Mus musculus, GL26, 24 h); 308 µM in the series with U87 human glioma (Homo sapiens, U-87 MG, 24 h); 930 µM with MDA-231 Breast Cancer (setting [2]). For the same molecule, the EC50 in the series on CRL5904 NSC Lung Cancer (24 h) is above 1000 µM; with HT-29 human colon cancer (Homo sapiens, HT-29, 24 h), 360 µM; in the series on DNTC-1 Astrocytes, 110 µM; with HBMVEC Endothelial (24 h), above 1000 µM; with unmodified GL26 cells (Mus musculus), 595 µM. Also, the viability at 1000 µM with 9L Glioma (after treatment with 1000 μM, read-out: percentage of viable cells remaining) worked out at 51%; with CRL5904 NSC Lung Cancer, 89%. The “effectiveness as a cytotoxic agent” value in the series on C6 rat glioma (C6 rat glioma, WST-1 assay) is reported as “highly effective”; in the series on U87 human glioma (U87 human glioma, WST-1 assay) it was “highly effective”; in the series on HT-29 human colon cancer (HT-29 human colon cancer, WST-1 assay) it was “highly effective”. In series [1], the viability at 24 h, 1000 μM turned out to be 84%. Also, the “survival, C57BL/6 (WT) relative to nu/nu mice” value is “increased survival” with GL26 glioma and “significantly increased” in the series on GL26 glioma (listed as MS). Besides, the survival entry with GL26 glioma (T cell-deficient nude (nu/nu) hosts) is “not in nude hosts”; in the series with GL26 glioma (T cell-deficient nude (nu/nu) hosts, listed as MS), “increased survival only in WT hosts”; with GL26 glioma (wild-type C57BL/6 hosts, with or without DC vaccination), “prolonged survival in B6”; with GL26 glioma (wild-type C57BL/6 hosts, with or without DC vaccination, listed as MS), “increased survival”; in the series on GL26 glioma (wild-type C57BL/6 hosts, with or without DC vaccination, listed as Minoxidil sulfate), “enhanced survival”.

`CC(N/C(=N\C#N)Nc1ccncc1)C(C)(C)C` (stereo not drawn) [Pinacidil, pinacidil]: the EC50 in the series with RG2 Glioma (Rattus norvegicus, RG2, 24 h) was above 1000 µM; in the series on 9L Glioma, 790 µM; in the series on C6 rat glioma (Rattus norvegicus, C6 glioma) it was above 1000 µM; in the series with GL-26 Glioma (Mus musculus, GL26, 24 h), 210 µM; with U87 human glioma (Homo sapiens, U-87 MG, 24 h), above 1000 µM; in the series with MDA-231 Breast Cancer (setting [2]), 220 µM. For the same molecule, the EC50 in the series with CRL5904 NSC Lung Cancer (24 h) is above 1000 µM; in the series with HT-29 human colon cancer (Homo sapiens, HT-29, 24 h), above 1000 µM; in the series with HBMVEC Endothelial (24 h), above 1000 µM; in the series on unmodified GL26 cells (Mus musculus), 210 µM. The viability at 1000 µM in the series on RG2 Glioma (Rattus norvegicus, RG2, read-out: percentage of viable cells remaining) was 69%; in the series with C6 rat glioma (Rattus norvegicus, C6 glioma, read-out: percentage of viable cells remaining), 93%; in the series with U87 human glioma (Homo sapiens, U-87 MG, read-out: percentage of viable cells remaining), 77%; in the series with CRL5904 NSC Lung Cancer, 79.5%; with HT-29 human colon cancer (Homo sapiens, HT-29, read-out: percentage of viable cells remaining), 74%. Also, the viability at 24 h, 1000 μM in series [1] turned out to be 106%.

Regarding `Cn1nnc2c(C(N)=O)ncn2c1=O` [Temodar], the EC50 with unmodified GL26 cells (Mus musculus) is above 1000 µM.
